Measured values: the supplement of paper PMC10307832

How the values were obtained:
Assay in all cases: relative viability (nuclei count vs DMSO), 5 days (fraction); higher = more cells survive
NCI-H1792 = test system: NCI-H1792
Summary of the method: (§1)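 Each reported value is a median over duplicate plates. It expresses relative viability: treated-well nuclei count divided by vehicle-well nuclei count. Lung cancer cell lines in 1536-well plates were dosed by pin tool a day after seeding, alone with one drug or with a fixed anchor-drug dose plus five library-drug doses (not always all listed) in √10 steps, and nuclei were counted after 5 days.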

PC-3 [JPC-3] = test system: PC-3 [JPC-3]
Summary of the method: as §1

SK-MES-1 = test system: SK-MES-1
Summary of the method: as §1

LK-2 = test system: LK-2
Summary of the method: as §1

NCI-H1944 = test system: NCI-H1944
Summary of the method: as §1

NCI-H596 = test system: NCI-H596
Summary of the method: as §1

COR-L 105 = test system: COR-L 105
Summary of the method: as §1

ChaGo-K-1 = test system: ChaGo-K-1
Summary of the method: as §1

NCI-H2170 = test system: NCI-H2170
Summary of the method: as §1

SW 900 = test system: SW 900
Summary of the method: as §1

H3255 = test system: H3255
Summary of the method: as §1

NCI-H520 = test system: NCI-H520
Summary of the method: as §1

NCI-H441 = test system: NCI-H441
Summary of the method: as §1

HCC-366 = test system: HCC-366
Summary of the method: as §1

NCI-H1975 = test system: NCI-H1975
Summary of the method: as §1

EMC-BAC-2 = test system: EMC-BAC-2
Summary of the method: as §1

NCI-H23 = test system: NCI-H23
Summary of the method: as §1

A-427 = test system: A-427
Summary of the method: as §1

NCI-H1666 = test system: NCI-H1666
Summary of the method: as §1

LOU-NH91 = test system: LOU-NH91
Summary of the method: as §1

EKVX = test system: EKVX
Summary of the method: as §1

NCI-H1755 = test system: NCI-H1755
Summary of the method: as §1

NCI-H1734 = test system: NCI-H1734
Summary of the method: as §1

Compound: COc1cc(N2CCC(C(N)=O)CC2)ccc1Nc1nc(N)c(Cl)c(Nc2ccccc2S(=O)(=O)C(C)C)n1 [HG-5-88-01] + O=C(c1cc(Cc2n[nH]c(=O)c3ccccc23)ccc1F)N1CCN(C(=O)C2CC2)CC1 [Olaparib] (partner 8 µM)
- relative viability (NCI-H1792; first compound 0.04 µM): 0.513
- relative viability (NCI-H1792; first compound 0.1265 µM): 0.424
- relative viability (NCI-H1792; first compound 0.4 µM): 0.434
- relative viability (NCI-H1792; first compound 1.265 µM): 0.397
- relative viability (NCI-H1792; first compound 4 µM): 0.484
- relative viability (PC-3 [JPC-3]; first compound 0.04 µM): 1.15
- relative viability (PC-3 [JPC-3]; first compound 0.1265 µM): 1.14
- relative viability (PC-3 [JPC-3]; first compound 0.4 µM): 1.04
- relative viability (PC-3 [JPC-3]; first compound 1.265 µM): 0.379
- relative viability (PC-3 [JPC-3]; first compound 4 µM): 0.506
- relative viability (SK-MES-1; first compound 0.04 µM): 0.657
- relative viability (SK-MES-1; first compound 0.1265 µM): 0.658
- relative viability (SK-MES-1; first compound 0.4 µM): 0.689
- relative viability (SK-MES-1; first compound 1.265 µM): 0.508
- relative viability (SK-MES-1; first compound 4 µM): 0.564
- relative viability (LK-2; first compound 0.04 µM): 0.941
- relative viability (LK-2; first compound 0.1265 µM): 0.645
- relative viability (LK-2; first compound 0.4 µM): 0.718
- relative viability (LK-2; first compound 4 µM): 0.501
- relative viability (NCI-H1944; first compound 0.04 µM): 0.414
- relative viability (NCI-H1944; first compound 0.1265 µM): 0.374
- relative viability (NCI-H1944; first compound 0.4 µM): 0.479
- relative viability (NCI-H1944; first compound 1.265 µM): 0.466
- relative viability (NCI-H1944; first compound 4 µM): 0.466
- relative viability (NCI-H596; first compound 0.04 µM): 0.729
- relative viability (NCI-H596; first compound 0.1265 µM): 0.734
- relative viability (NCI-H596; first compound 0.4 µM): 0.682
- relative viability (NCI-H596; first compound 1.265 µM): 0.777
- relative viability (NCI-H596; first compound 4 µM): 0.694
- relative viability (COR-L 105; first compound 0.04 µM): 0.752
- relative viability (COR-L 105; first compound 0.1265 µM): 0.765
- relative viability (COR-L 105; first compound 0.4 µM): 0.708
- relative viability (COR-L 105; first compound 1.265 µM): 0.692
- relative viability (COR-L 105; first compound 4 µM): 0.683
- relative viability (ChaGo-K-1; first compound 0.04 µM): 0.421
- relative viability (ChaGo-K-1; first compound 0.1265 µM): 0.418
- relative viability (ChaGo-K-1; first compound 0.4 µM): 0.455
- relative viability (ChaGo-K-1; first compound 1.265 µM): 0.421
- relative viability (ChaGo-K-1; first compound 4 µM): 0.393
- relative viability (NCI-H2170; first compound 0.04 µM): 0.64
- relative viability (NCI-H2170; first compound 0.1265 µM): 0.669
- relative viability (NCI-H2170; first compound 0.4 µM): 0.605
- relative viability (NCI-H2170; first compound 1.265 µM): 0.53
- relative viability (NCI-H2170; first compound 4 µM): 0.545
- relative viability (SW 900; first compound 0.04 µM): 0.954
- relative viability (SW 900; first compound 0.1265 µM): 1.06
- relative viability (SW 900; first compound 0.4 µM): 0.867
- relative viability (SW 900; first compound 1.265 µM): 0.848
- relative viability (SW 900; first compound 4 µM): 0.631
- relative viability (H3255; first compound 0.04 µM): 0.556
- relative viability (H3255; first compound 0.1265 µM): 0.593
- relative viability (H3255; first compound 0.4 µM): 0.555
- relative viability (H3255; first compound 4 µM): 0.531
- relative viability (NCI-H520; first compound 0.04 µM): 0.289
- relative viability (NCI-H520; first compound 0.1265 µM): 0.33
- relative viability (NCI-H520; first compound 0.4 µM): 0.389
- relative viability (NCI-H520; first compound 1.265 µM): 0.327
- relative viability (NCI-H520; first compound 4 µM): 0.363
- relative viability (NCI-H441; first compound 0.04 µM): 0.557
- relative viability (NCI-H441; first compound 0.1265 µM): 0.639
- relative viability (NCI-H441; first compound 0.4 µM): 0.701
- relative viability (NCI-H441; first compound 1.265 µM): 0.574
- relative viability (NCI-H441; first compound 4 µM): 0.434
- relative viability (HCC-366; first compound 0.04 µM): 0.385
- relative viability (HCC-366; first compound 0.1265 µM): 0.391
- relative viability (HCC-366; first compound 0.4 µM): 0.352
- relative viability (HCC-366; first compound 1.265 µM): 0.39
- relative viability (HCC-366; first compound 4 µM): 0.38
- relative viability (NCI-H1975; first compound 0.04 µM): 0.834
- relative viability (NCI-H1975; first compound 0.1265 µM): 0.822
- relative viability (NCI-H1975; first compound 0.4 µM): 0.782
- relative viability (NCI-H1975; first compound 1.265 µM): 0.715
- relative viability (NCI-H1975; first compound 4 µM): 0.419
- relative viability (EMC-BAC-2; first compound 0.04 µM): 0.482
- relative viability (EMC-BAC-2; first compound 0.1265 µM): 0.526
- relative viability (EMC-BAC-2; first compound 0.4 µM): 0.615
- relative viability (EMC-BAC-2; first compound 1.265 µM): 0.459
- relative viability (EMC-BAC-2; first compound 4 µM): 0.46
- relative viability (NCI-H23; first compound 0.04 µM): 0.321
- relative viability (NCI-H23; first compound 0.1265 µM): 0.279
- relative viability (NCI-H23; first compound 0.4 µM): 0.303
- relative viability (NCI-H23; first compound 1.265 µM): 0.334
- relative viability (NCI-H23; first compound 4 µM): 0.194
- relative viability (A-427; first compound 0.04 µM): 0.652
- relative viability (A-427; first compound 0.1265 µM): 0.807
- relative viability (A-427; first compound 0.4 µM): 0.762
- relative viability (A-427; first compound 1.265 µM): 0.746
- relative viability (A-427; first compound 4 µM): 0.513
- relative viability (NCI-H1666; first compound 0.04 µM): 0.759
- relative viability (NCI-H1666; first compound 0.1265 µM): 0.737
- relative viability (NCI-H1666; first compound 0.4 µM): 0.816
- relative viability (NCI-H1666; first compound 1.265 µM): 0.771
- relative viability (NCI-H1666; first compound 4 µM): 0.684
- relative viability (LOU-NH91; first compound 0.04 µM): 0.861
- relative viability (LOU-NH91; first compound 0.1265 µM): 0.882
- relative viability (LOU-NH91; first compound 0.4 µM): 0.733
- relative viability (LOU-NH91; first compound 1.265 µM): 0.514
- relative viability (LOU-NH91; first compound 4 µM): 0.618
- relative viability (EKVX; first compound 0.04 µM): 0.896
- relative viability (EKVX; first compound 0.1265 µM): 0.955
- relative viability (EKVX; first compound 0.4 µM): 0.813
- relative viability (EKVX; first compound 4 µM): 0.633
- relative viability (NCI-H1755; first compound 0.04 µM): 0.811
- relative viability (NCI-H1755; first compound 0.1265 µM): 0.869
- relative viability (NCI-H1755; first compound 0.4 µM): 0.874
- relative viability (NCI-H1755; first compound 1.265 µM): 0.849
- relative viability (NCI-H1755; first compound 4 µM): 0.928
- relative viability (NCI-H1734; first compound 0.04 µM): 0.681
- relative viability (NCI-H1734; first compound 0.1265 µM): 0.583
- relative viability (NCI-H1734; first compound 0.4 µM): 0.642
- relative viability (NCI-H1734; first compound 1.265 µM): 0.54
- relative viability (NCI-H1734; first compound 4 µM): 0.558
